Assay results from article PMC3914206.

Columns and labels:
Assay type in all cases: binding
Details in all cases: Compound Concentration 10 µM
panel of 442 kinases [1] = target: T1, panel of 442 kinases (Homo sapiens, UniProt P10721)
T1 construct: purchased KINOMEscan
Source text: (§1) We assessed the selectivity of members of this scaffold using the KINOMEscan methodology across a near comprehensive panel of 442 kinases [[18,27]].

panel of 442 kinases [2] = target: T2, panel of 442 kinases (Homo sapiens, UniProt P36507)
T2 construct: purchased KINOMEscan
Source text: as §1

panel of 442 kinases [3] = target: T3, panel of 442 kinases (Homo sapiens, UniProt O15197)
T3 construct: purchased KINOMEscan
T3 sequence (O15197 32-1021): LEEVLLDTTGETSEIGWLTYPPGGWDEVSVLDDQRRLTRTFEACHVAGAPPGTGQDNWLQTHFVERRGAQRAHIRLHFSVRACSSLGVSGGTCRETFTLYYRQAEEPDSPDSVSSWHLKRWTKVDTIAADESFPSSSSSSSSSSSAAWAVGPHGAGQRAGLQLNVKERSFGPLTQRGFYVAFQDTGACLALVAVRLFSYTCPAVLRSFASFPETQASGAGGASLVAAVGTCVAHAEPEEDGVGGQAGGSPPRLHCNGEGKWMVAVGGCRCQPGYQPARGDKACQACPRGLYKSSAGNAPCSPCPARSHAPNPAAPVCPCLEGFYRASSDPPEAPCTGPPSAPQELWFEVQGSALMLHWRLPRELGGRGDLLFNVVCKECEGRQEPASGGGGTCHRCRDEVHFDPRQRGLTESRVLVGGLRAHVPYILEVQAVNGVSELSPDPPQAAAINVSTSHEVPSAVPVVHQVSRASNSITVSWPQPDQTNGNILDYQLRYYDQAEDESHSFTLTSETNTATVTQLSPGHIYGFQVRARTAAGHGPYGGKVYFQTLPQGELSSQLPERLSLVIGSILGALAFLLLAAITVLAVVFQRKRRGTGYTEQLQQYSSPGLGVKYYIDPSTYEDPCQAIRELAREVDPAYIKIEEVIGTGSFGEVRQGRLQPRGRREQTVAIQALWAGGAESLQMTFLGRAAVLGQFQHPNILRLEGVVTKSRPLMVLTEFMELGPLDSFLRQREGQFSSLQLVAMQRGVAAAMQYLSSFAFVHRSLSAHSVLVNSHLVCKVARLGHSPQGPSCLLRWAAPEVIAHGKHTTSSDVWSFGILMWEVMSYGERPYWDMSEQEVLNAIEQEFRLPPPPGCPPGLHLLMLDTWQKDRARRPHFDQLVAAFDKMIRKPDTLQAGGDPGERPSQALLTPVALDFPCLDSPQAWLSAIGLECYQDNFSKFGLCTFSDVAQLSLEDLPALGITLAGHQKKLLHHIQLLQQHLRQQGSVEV
Source text: as §1

T1 sequence (P10721 26-976): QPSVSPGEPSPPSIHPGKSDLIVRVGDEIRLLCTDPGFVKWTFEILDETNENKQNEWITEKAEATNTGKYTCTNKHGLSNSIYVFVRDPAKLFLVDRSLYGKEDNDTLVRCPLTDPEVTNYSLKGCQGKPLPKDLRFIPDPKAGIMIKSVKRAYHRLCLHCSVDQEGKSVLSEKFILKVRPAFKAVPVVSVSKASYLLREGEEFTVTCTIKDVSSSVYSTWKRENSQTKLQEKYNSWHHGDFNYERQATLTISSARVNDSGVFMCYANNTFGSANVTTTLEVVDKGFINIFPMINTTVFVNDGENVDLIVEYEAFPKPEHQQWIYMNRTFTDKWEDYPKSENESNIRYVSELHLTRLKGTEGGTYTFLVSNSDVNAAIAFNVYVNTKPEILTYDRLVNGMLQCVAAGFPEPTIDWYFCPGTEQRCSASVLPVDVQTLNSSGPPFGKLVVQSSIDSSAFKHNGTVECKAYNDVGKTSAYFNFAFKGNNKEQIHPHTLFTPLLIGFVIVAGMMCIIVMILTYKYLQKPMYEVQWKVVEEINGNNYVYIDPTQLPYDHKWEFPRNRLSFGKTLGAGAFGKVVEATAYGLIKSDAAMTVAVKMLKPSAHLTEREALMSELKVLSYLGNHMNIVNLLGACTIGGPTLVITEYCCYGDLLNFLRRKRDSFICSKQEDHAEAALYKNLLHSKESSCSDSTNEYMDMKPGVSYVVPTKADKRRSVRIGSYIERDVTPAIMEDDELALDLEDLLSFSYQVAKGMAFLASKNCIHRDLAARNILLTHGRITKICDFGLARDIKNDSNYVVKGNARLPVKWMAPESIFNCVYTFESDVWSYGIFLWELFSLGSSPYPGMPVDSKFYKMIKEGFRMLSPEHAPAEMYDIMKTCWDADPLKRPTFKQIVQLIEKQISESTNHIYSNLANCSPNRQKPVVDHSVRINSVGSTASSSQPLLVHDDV
T2 sequence (P36507 whole entry): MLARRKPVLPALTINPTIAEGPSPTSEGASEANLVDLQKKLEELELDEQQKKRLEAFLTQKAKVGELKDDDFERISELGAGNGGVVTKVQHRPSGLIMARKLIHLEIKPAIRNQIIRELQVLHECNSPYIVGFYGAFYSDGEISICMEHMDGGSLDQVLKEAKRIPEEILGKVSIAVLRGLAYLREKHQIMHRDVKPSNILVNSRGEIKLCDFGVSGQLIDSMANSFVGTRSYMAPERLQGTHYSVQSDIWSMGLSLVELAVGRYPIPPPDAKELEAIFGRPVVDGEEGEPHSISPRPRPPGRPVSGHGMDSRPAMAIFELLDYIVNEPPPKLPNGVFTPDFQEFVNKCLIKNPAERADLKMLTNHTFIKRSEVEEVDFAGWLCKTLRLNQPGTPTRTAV

Row | SMILES | KINOMEscan: KIT (panel of 442 kinases [1]) | KINOMEscan: MEK2 (panel of 442 kinases [2]) | KINOMEscan: EPHB6 (panel of 442 kinases [3])
1 | COc1cc(C(=O)N2CCC(N3CCN(C)CC3)CC2)ccc1Nc1ncc2c(n1)N(C)c1ccccc1C(=O)N2C [15 (LRRK2-IN-1)] | 100 | 99 | 31
2 | CCOc1cc(C(=O)N2CCC(N3CCN(C)CC3)CC2)ccc1Nc1ncc2c(n1)N(C1CCCC1)c1ccccc1C(=O)N2C [Compound 26] | 100 | 89 | 100
3 | COc1cc(C(=O)N2CCC(N3CCN(C)CC3)CC2)ccc1Nc1ncc2c(n1)N1CCc3cccc(c31)C(=O)N2C [Compound 24] |  |  | 68
4 | COc1cc(C(=O)N2CCC(N3CCN(C)CC3)CC2)ccc1Nc1ncc2c(n1)N(C1CCCC1)c1ccccc1C(=O)N2C [Compound 25, 11-cyclopentyl-2-((2-methoxy-4-(4-(4-methylpiperazin-1-yl)piperidine-1-carbonyl)phenyl)amino)-5-methyl-5H-benzo[e]pyrimido[5,4-b][1,4]diazepin-6(11H)-one] | 91 | 66 | 69
